Measurements taken from EP4752152A1, “STEROID COMPOUND, AND PREPARATION METHOD THEREFOR AND USE THEREOF” (Cholesgen (Shanghai) Co.Ltd., priority 2023, dated 2025).

Tested on: SREBP pathway
Test: SREBP luciferase reporter gene system (SRE-luciferase assay)
Type: cell-based, human
Conditions: Homo sapiens, Huh-7, 16 h, Huh-7/SRE-luc cells, sterol-deficient medium, 0.01-10 µM
Outline: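 Readout was SRE-driven luciferase normalised to GFP fluorescence in lysates of stably transfected Huh-7/SRE-luc hepatoma cells. Compounds (0.01, 0.03, 0.1, 0.3, 1.0, 3.0, 10 µM; DMSO control) were applied for 16 h in sterol-depleted medium with 2 µM lovastatin and 10 µM mevalonate; IC50 from variable-slope fit.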

Question: How did the IC50 turn out when `C[C@H](CCCC(O)C1CC2CCC1C2)[C@H]1CC[C@H]2[C@H]3[C@H](CC[C@]12C)[C@@]1(C)CC[C@H](O)[C@H](O)[C@@H]1CC3(F)F` (stereo partly drawn) [Compound 213, (1R,3aS,3bS,5aR,6R,7 S,9aR,9bS,11aR)-1-[(2R)-6-(Bicyclo[2.2.1]heptan-2-yl)-6-hydroxyhexan-2-yl]-4,4-difluoro-9a,11a-dimethylhexadecahyd ro-1H-cyclopenta[1,2-a]phenanthrene-6,7-diol] was run?
Answer: 0.569 µM

Question: With `C[C@H](CCCC(O)c1cccc2cnn(C)c12)[C@H]1CC[C@H]2[C@H]3[C@H](CC[C@]12C)[C@@]1(C)CC[C@H](O)[C@H](O)[C@@H]1CC3(F)F` (stereo partly drawn) [Compound 207, (1R,3aS,3bS,5aR,6R,7 S,9aR,9bS,11aR)-4,4-Difluoro-1-[(2R)-6-hydroxy-6-(1-methylindazol-7-yl)hexan-2-yl]-9a,11a-dimethylhexadecahydro-1H-cyclopenta[1,2-a]phenanthrene-6,7-diol] as the molecule, how does the IC50 read?
Answer: 0.206 µM

Question: For `COc1nc(F)ccc1[C@@H](O)CC[C@@H](C)[C@H]1CC[C@H]2C3=C(F)C[C@H]4[C@@H](O)[C@@H](O)CC[C@]4(C)[C@H]3CC[C@]12C` [Compound 339, (1R,3aR,5aR,6R,7S,9aR,9bR,11aR)-4-fluoro-1-[(2R,5S)-5-(6-fluoro-2-methoxypyridin-3-yl)-5-hydroxypentan-2-yl]-9a,11a-dimethyl-2,3,3a,5,5a,6,7,8,9,9a,9b,10,11,11a-tetradecahydro-1H-cyclopenta[1,2-a]phenanthrene-6,7-diol], which IC50 is on record?
Answer: 0.143 µM

Question: Which IC50 does the source give for `COc1cccc(OC)c1C(O)CCC[C@@H](C)[C@H]1CC[C@H]2[C@H]3[C@H](CC[C@]12C)[C@@]1(C)CC[C@H](O)[C@H](O)[C@@H]1CC3(F)F` (stereo partly drawn) [Compound 116, (1R,3aS,3bS,5aR,6R,7S,9aR,9bS,11aR)-1-[(2R)-6-(2,6-dimethoxyphenyl)-6-hydroxyhexan-2-yl]-4,4-difluoro-9a,11a-dimethylhexadecahydro-1H-cyclopenta[1,2-a]phenanthrene-6,7-diol] here?
Answer: 0.177 µM

Question: For `C[C@H](CCC[C@@H](O)c1ccc(F)nc1OCC1COC1)[C@H]1CC[C@H]2[C@H]3[C@H](CC[C@]12C)[C@@]1(C)CC[C@H](O)[C@H](O)[C@@H]1CC3(F)F` [Compound 386, (1R,3aS,3bS,5aR,6R,7S,9aR,9bS,11aR)-4,4-difluoro-1-[(2R,6R)-6-{6-fluoro-2-[(oxetan-3-ylmethyl)oxy]pyridin-3-yl}-6-hydroxyhexan-2-yl]-9a,11a-dimethylhexadecahydro-1H-cyclopenta[1,2-a]phenanthrene-6,7-diol], which IC50 is on record?
Answer: 0.026 µM

Question: With `C[C@H](CCCC(O)c1c(F)ccnc1F)[C@H]1CC[C@H]2C3=C(F)C[C@H]4[C@@H](O)[C@@H](O)CC[C@]4(C)[C@H]3CC[C@]12C` (stereo partly drawn) [Compound 145, (1R,3aR,5aR,6R,7S,9aR,9bR,11aR)-1-[(2R)-6-(2,4-difluoropyridin-3-yl)-6-hydroxyhexan-2-yl]-4-fluoro-9a,11a-dimethyl-2,3,3a,5,5a,6,7,8,9,9a,9b,10,11,11a-tetradecahydro-1H-cyclopenta[1,2-a]phenanthrene-6,7-diol] as the molecule, how does the IC50 read?
Answer: 0.35 µM

Same assay, conditions: Huh-7/SRE-luc cells, sterol-deficient medium, 16 hours, 0.01-10 µM

Question: `COc1cc(C(O)CCC[C@@H](C)[C@H]2CC[C@H]3[C@H]4[C@H](CC[C@]23C)[C@@]2(C)CC[C@H](O)[C@H](O)[C@@H]2CC4(F)F)cc(F)n1` (single isomer, unassigned) [Compound 248, (1R,3aS,3bS,5aR,6R,7S,9aR,9bS,11aR)-4,4-difluoro-1-[(2R,6R)-6-(6-fluoro-2-methoxypyridin-4-yl)-6-hydroxyhexan-2-yl]-9a,11a-dimethylhexadecahydro-1H-cyclopenta[1,2-a]phenanthrene-6,7-diol or (1R,3aS,3bS,5aR,6R,7S,9aR,9bS,11aR)-4,4-difluoro-1-[(2R,6S)-6-(6-fluoro-2-methoxypyridin-4-yl)-6-hydroxyhexan-2-yl]-9a,11a-dimethylhexadecahydro-1H-cyclopenta[1,2-a]phenanthrene-6,7-diol] was tested. Which IC50 did it give?
Answer: 0.035 µM
